# Results as given in patent US11485729B2, “Substituted pyridazinone compound” (Shenzhen TargetRx, Inc., priority 2018, dated 2022).
# How the values were obtained:
# [1] = Metabolic stability evaluation in human liver microsomes; assay type: in vitro ADME; details: pH 7.4, Human liver microsome, 0.5 mg/mL protein, 1 μM compound
# Description: (2) Metabolic Stability Evaluation
# Microsome assay: human liver microsomes: 0.5 mg/mL, Xenotech; rat liver microsomes: 0.5 mg/mL, Xenotech; coenzyme (NADPH/NADH): 1 mM, Sigma Life Science; magnesium chloride: 5 mM, 100 mM phosphate buffer (pH 7.4).
# Preparation of stock solutions: Powder of the example compounds were accurately weighed and dissolved in DMSO to 5 mM respectively.
# Preparation of phosphate buffer (100 mM, pH7.4): A pre-prepared 0.5M potassium dihydrogen phosphate (150 mL) was mixed with 0.5M dibasic potassium phosphate (700 mL). The pH of the mixture was adjusted to 7.4 with 0.5M dibasic potassium phosphate solution. The mixture was diluted 5-fold with ultrapure water before use, and magnesium chloride was added to obtain a phosphate buffer (100 mM) containing 100 mM potassium phosphate, 3.3 mM magnesium chloride, pH 7.4.
# A NADPH regeneration system solution (containing 6.5 mM NADP, 16.5 mM G-6-P, 3 U/mL G-6-P D, 3.3 mM magnesium chloride) was prepared and placed on wet ice prior to use.
# Preparation of stop solution: an acetonitrile solution containing 50 ng/mL propranolol hydrochloride and 200 ng/mL tolbutamide (internal standard). 25057.5 μL of phosphate buffer (pH 7.4) was taken into a 50 mL centrifuge tube, to which 812.5 μL of human liver microsomes were added, and mixed to obtain a liver microsome dilution with a protein concentration of 0.625 mg/mL. 25057.5 μL of phosphate buffer (pH 7.4) was taken into a 50 mL centrifuge tube, to which 812.5 μL of SD rat liver microsomes were added, and mixed to obtain a liver microsome dilution with a protein concentration of 0.625 mg/mL.
# Incubation of the samples: The stock solutions of the respective compounds were respectively diluted to 0.25 mM with an aqueous solution containing 70% acetonitrile, and used as a working solution, ready for use. 398 μL of the dilutions of human liver microsomes and rat liver microsomes were added to 96-well incubation plates (N=2), respectively, and 2 μL of 0.25 mM working solution was added respectively and mixed.
# Metabolic stability assay: 300 μL of pre-chilled stop solution was added to each well of 96-well deep well plates and placed on ice as stop plates. The 96-well incubation plates and NADPH regeneration system were placed in a 37° C. water bath, shaken at 100 rpm and pre-incubated for 5 min. 80 μL of incubation solution was taken out from each well of the incubation plates and added to the stop plates, mixed, and replenished with 20 μL of NADPH regeneration system solution as a 0-min sample. 80 μL of NADPH regeneration system solution was added to each well of the incubation plates to start the reaction and start counting. […] Separately, 100 μL of the reaction solutions was taken at 10, 30, and 90 min after the reaction, respectively, added to stop plates, and vortexed for 3 minutes to terminate the reaction. The stop plates were centrifuged at 5000×g at 4° C. for 10 min. 100 μL of the supernatant was added to a 96-well plate to which 100 μL of distilled water was previously added, mixed, and analyzed by LC-MS/MS.
# Data analysis: The peak areas of the corresponding compounds and internal standard were detected by LC-MS/MS system, and the ratio of the peak area of the compounds to the internal standard was calculated.
# The metabolic stability of the compounds in human and rat liver microsomes was evaluated by simultaneously testing and comparing the compounds disclosed herein and the non-deuterated compound. The non-deuterated compound MGL-3196 was used as a control sample.
# [2] = preclinical toxicology, clinical phase 1 and phase II data; cited from earlier work
Structure (SMILES),half-life at 1 μM [1],microsomal CLint at 1 μM [1],"effect on the central thyroid axis, heart rate or bone [2]",liver enzymes [2]
"[2H]C([2H])([2H])C(C)c1cc(Oc2c(Cl)cc(-n3nc(C#N)c(=O)[nH]c3=O)cc2Cl)n[nH]c1=O (stereo not drawn) [Compound M-1, 2-(3,5-dichloro-4-((6-oxo-5-(propan-2-yl-1,1,1-d3)-1,6-dihydropyridazin-3-yl)oxy)phenyl)-3,5-dioxo-2,3,4,5-tetrahydro-1,2,4-triazine-6-carbonitrile]",> 16.7 h,0.1 to 2 µL/min/mg,–,–
"[2H]C([2H])([2H])C(c1cc(Oc2c(Cl)cc(-n3nc(C#N)c(=O)[nH]c3=O)cc2Cl)n[nH]c1=O)C([2H])([2H])[2H] [Compound M-2, 2-(3,5-dichloro-4-((6-oxo-5-(propan-2-yl-1,1,1,3,3,3-d6)-1,6-dihydropyridazin-3-yl)oxy)phenyl)-3,5-dioxo-2,3,4,5-tetrahydro-1,2,4-triazine-6-carbonitrile]",> 16.7 h,0.1 to 2 µL/min/mg,–,–
"[2H]c1c(Cl)c(Oc2cc(C(C([2H])([2H])[2H])C([2H])([2H])[2H])c(=O)[nH]n2)c(Cl)c([2H])c1-n1nc(C#N)c(=O)[nH]c1=O [Compound M-3, 2-(3,5-dichloro-4-((6-oxo-5-(propan-2-yl-1,1,1,3,3,3-d6)-1,6-dihydropyridazin-3-yl)oxy)phenyl-2,6-d2)-3,5-dioxo-2,3,4,5-tetrahydro-1,2,4-triazine-6-carbonitrile]",> 16.7 h,0.1 to 2 µL/min/mg,–,–
"[2H]c1c(Cl)c(Oc2cc(C(C)C)c(=O)[nH]n2)c(Cl)c([2H])c1-n1nc(C#N)c(=O)[nH]c1=O [Compound M-4, 2-(3,5-dichloro-4-((5-isopropyl-6-oxo-1,6-dihydropyridazin-3-yl)oxy)phenyl-2,6-d2)-3,5-dioxo-2,3,4,5-tetrahydro-1,2,4-triazine-6-carbonitrile]",> 16.7 h,0.1 to 2 µL/min/mg,–,–
"CC(C)c1cc(Oc2c(Cl)cc(-n3nc(C#N)c(=O)[nH]c3=O)cc2Cl)n[nH]c1=O [MGL-3196, 2-(3,5-dichloro-4-((5-isopropyl-6-oxo-1,6-dihydropyridazin-3-yl)oxy)phenyl)-3,5-dioxo-2,3,4,5-tetrahydro-1,2,4-triazine-6-carbonitrile, reference compound]",< 8.33 h,2.5 to 3 µL/min/mg,no inhibitory effect,no increase of the liver enzymes has been observed
